Test results: patent US20060079453A1, “Hla binding peptides and their uses” (priority 2002, published 2006)
No end group written: not given here.

Experiments:
Assay in all cases: biochemical
Type in all cases: binding
[1] = target: HLA-DR DRB5*0101 (DR51) (Homo sapiens, UniProt P01903+Q30154); conditions: DRB5 *0101
[2] = target: HLA-DR DRB1*0101 (DR1) (Homo sapiens, UniProt P01903+P01911, A100R/D57E/F55L/F60I/F76Y/I96L/L162R/M171V/P40L/Q125E/R42F/V115G/Y59C); conditions: DRB1 *0101
[3] = target: HLA-DR DRB3*0101 (DR52) (Homo sapiens, UniProt P01903+P79483)
[4] = target: HLA-DR DRB1*1101 (DR11) (Homo sapiens, UniProt P01903+P01911, A100R/A169T/A87E/I96F/K41T/L162R/M171V/P40S/Q125H/Q178H/Q39Y/Q99D/R42S/S66Y/T262R/V115G/W38E); conditions: DRB1 *1101
[5] = target: HLA-DR DRB4*0101 (DR53) (Homo sapiens, UniProt P01903+P13762, G164S); conditions: DRB4 *0101
[6] = target: HLA-DR DRB1*0802 (DR8) (Homo sapiens, UniProt P01903+P01911, A100R/A103L/A169T/F76Y/H45Y/I96F/K41T/L162R/M171V/P40S/Q125H/Q178H/Q39Y/Q99D/R218S/R42G/S66Y/V115G/W38E)
[7] = target: HLA-DR DRB1*0901 (DR9) (Homo sapiens, UniProt P01903+P01911, A100R/A103E/D57H/D86V/F55Y/F60I/F76Y/I96F/K127E/L162R/M171V/P40D/Q125H/Q99R/R33Q/R42F/S133A/S66N/T210M/V115G/W38K/Y107V/Y59G/Y89S); conditions: DRB1 *0901
[8] = target: HLA-DR DRB1*0701 (DR7) (Homo sapiens, UniProt P01903+P01911, A100R/A102G/A103Q/D57E/D86V/E43K/F76Y/K127E/L162R/M171V/P40G/Q125H/Q99D/R33Q/R42Y/R54Q/S133A/S66F/T210M/V115G/Y107V/Y59L/Y89S); conditions: DRB1 *0701
[9] = target: HLA-DR DRB1*1302 (DR13) (Homo sapiens, UniProt P01903+P01911, A100E/A169T/K41T/L162R/M171V/P40S/Q125H/Q178H/Q39Y/Q99D/R42S/S66N/T262R/V115G/W38E/Y61H); conditions: DRBI *1302
[10] = target: HLA-DR DRB1*1501 (DR15) (Homo sapiens, UniProt P01903+P01911); conditions: DRBI *1501
[11] = target: HLA-DR DRB1*0401 (DR4) (Homo sapiens, UniProt P01903+P01911, A100K/A169T/F76Y/I96L/K127E/L162R/M171V/N62H/P40V/Q125Y/R42H/S133A/S149N/S66Y/V115G/V209L/W38E); conditions: DRB1 *0401
[12] = target: HLA-DR DRB1*0301 (DR3) (Homo sapiens, UniProt P01903+P01911, A100K/A102G/A103R/A169T/F55Y/I96L/K41T/L162R/M171V/P40S/Q125H/Q178H/Q39Y/R42S/S66N/T106N/T262R/W38E/Y61H)
Chain of HLA-DR DRB1*0301 (DR3) (P01903 26-254 limits assumed, other chains not shown): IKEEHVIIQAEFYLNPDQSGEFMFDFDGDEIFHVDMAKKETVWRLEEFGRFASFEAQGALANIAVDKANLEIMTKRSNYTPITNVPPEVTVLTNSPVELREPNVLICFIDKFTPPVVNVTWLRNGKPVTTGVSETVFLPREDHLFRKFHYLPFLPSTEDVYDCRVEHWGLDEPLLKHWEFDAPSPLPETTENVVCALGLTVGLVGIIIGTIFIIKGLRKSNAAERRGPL

Chain of HLA-DR DRB1*1302 (DR13) (P01903 26-254 limits assumed, other chains not shown): as above
Chain of HLA-DR DRB1*1101 (DR11) (P01903 26-254 limits assumed, other chains not shown): as above

Compound | IC50 [1] | IC50 [2] | IC50 [3] | IC50 [4] | IC50 [5] | IC50 [6] | IC50 [7] | IC50 [8] | IC50 [9] | IC50 [10] | IC50 [11] | IC50 [12]
CC[C@H](C)[C@H](NC(=O)[C@H](CCC(N)=O)NC(=O)[C@@H](NC(=O)[C@H](Cc1ccccc1)NC(=O)[C@H](CC(N)=O)NC(=O)[C@H](Cc1ccc(O)cc1)NC(=O)[C@H](CC(C)C)NC(=O)[C@H](Cc1ccccc1)NC(=O)[C@@H](N)CCCCN)[C@@H](C)O)C(=O)N1CCC[C@H]1C(=O)N[C@@H](Cc1c[nH]cn1)C(=O)N[C@@H](CC(C)C)C(=O)N[C@@H](C)C(=O)NCC(=O)N[C@H](C(=O)O)[C@@H](C)O | 1600 nM | 340 nM | 10200 nM | 91 nM | 256 nM | 415 nM | 54 nM | 30 nM | 221 nM | – | – | –
QWVLTAAHCLKKNSQ | 382 nM | 895 nM | > 14900 nM | – | 14400 nM | 98000 nM | 4810 nM | 3400 nM | > 35000 nM | > 45500 nM | > 40000 nM | –
CC[C@H](C)[C@H](NC(=O)[C@H](CO)NC(=O)[C@H](CO)NC(=O)[C@H](CC(=O)O)NC(=O)[C@H](C)NC(=O)[C@H](CC(N)=O)NC(=O)[C@@H](NC(=O)[C@H](Cc1ccc(O)cc1)NC(=O)[C@H](C)NC(=O)[C@@H](NC(=O)CN)C(C)C)[C@@H](C)CC)C(=O)N[C@@H](CCC(=O)O)C(=O)NCC(=O)N[C@@H](CC(N)=O)C(=O)N[C@@H](Cc1ccc(O)cc1)C(=O)O | 66700 nM | – | 1420 nM | > 40000 nM | 477 nM | 23400 nM | 3050 nM | 6240 nM | – | 7610 nM | 146 nM | –
RPGLLGASVLGLDDI | > 88900 nM | – | 30200 nM | > 93900 nM | 22000 nM | > 61200 nM | – | – | 2060 nM | 6000 nM | 6520 nM | 35800 nM
LRMMNDQLMFLERAF | 758 nM | 2700 nM | 1570 nM | 1830 nM | 50 nM | 2490 nM | 4600 nM | 17500 nM | 1310 nM | – | 392 nM | –
VILLGRHSLFHPEDT | ≥ 100000 nM | 273 nM | > 12100 nM | – | 10700 nM | 737 nM | – | 30600 nM | 543 nM | 426 nM | 8210 nM | 8740 nM
CC(C)C[C@H](NC(=O)[C@@H](NC(=O)[C@H](CCC(N)=O)NC(=O)[C@H](Cc1c[nH]c2ccccc12)NC(=O)[C@@H]1CCCN1C(=O)[C@H](CCC(N)=O)NC(=O)[C@@H](N)CO)C(C)C)C(=O)N[C@H](C(=O)N[C@@H](C)C(=O)N[C@@H](CO)C(=O)N[C@@H](CCCNC(=N)N)C(=O)NCC(=O)N[C@@H](CCCNC(=N)N)C(=O)N[C@@H](C)C(=O)N[C@H](C(=O)O)C(C)C)C(C)C | 84 nM | 66 nM | > 12100 nM | – | 7560 nM | 386 nM | – | – | 32 nM | 11300 nM | 7630 nM | > 81800 nM
CSCC[C@H](NC(=O)CNC(=O)[C@H](CC(C)C)NC(=O)[C@H](CCC(N)=O)NC(=O)[C@@H](NC(=O)[C@H](CC(C)C)NC(=O)[C@H](CCC(N)=O)NC(=O)CNC(=O)[C@@H](N)Cc1ccccc1)[C@@H](C)O)C(=O)N[C@@H](CCC(=O)O)C(=O)N[C@@H](CCC(N)=O)C(=O)N[C@@H](Cc1c[nH]cn1)C(=O)N[C@@H](Cc1ccc(O)cc1)C(=O)N[C@@H](CCC(=O)O)C(=O)N[C@@H](CC(C)C)C(=O)O | ≥ 100000 nM | 2260 nM | > 14400 nM | – | 543 nM | 110000 nM | > 187000 nM | > 62500 nM | > 35000 nM | > 22800 nM | 3210 nM | –
GQRVPVSHSFPHPLY | > 200000 nM | 1560 nM | > 14900 nM | > 200000 nM | 9860 nM | > 245000 nM | 102 nM | 629 nM | 703 nM | – | > 40000 nM | –
CC[C@H](C)[C@H](NC(=O)[C@@H](NC(=O)[C@H](Cc1c[nH]cn1)NC(=O)[C@@H](N)CCCNC(=N)N)C(C)C)C(=O)N[C@@H](Cc1ccc(O)cc1)C(=O)N[C@@H](C)C(=O)N1CCC[C@H]1C(=O)N[C@@H](CO)C(=O)N[C@@H](CO)C(=O)N[C@@H](Cc1c[nH]cn1)C(=O)N[C@@H](CC(N)=O)C(=O)N[C@@H](CCCCN)C(=O)N[C@@H](Cc1ccc(O)cc1)C(=O)N[C@@H](C)C(=O)NCC(=O)O | 88 nM | 2170 nM | > 62800 nM | 13400 nM | 5290 nM | 11700 nM | 481 nM | 31200 nM | – | – | 481 nM | –
LFRVYSNFLRGKLKL | 2.9 nM | 43 nM | 8980 nM | 173 nM | 2330 nM | 28 nM | – | 5.5 nM | 80 nM | 2.8 nM | 643 nM | 6160 nM
AKTFLRTLVRGVPEY | 3480 nM | 104 nM | 546 nM | 6.3 nM | 472 nM | 9.2 nM | – | 25 nM | 94 nM | 829 nM | 208 nM | 54200 nM
